In test [1] the test system is phosphatidylserine (PS)-containing liposomes (PC/PS vesicles). Kind of test: Liposome binding assay (Trp-to-dansyl FRET) with large unilamellar vesicles. Also noted: key to Liposome binding assay: “Y” means PS-selective (or apoptotic cell-specific) binding is observed; N means no or insignificant membrane binding is observed; “Nonselective” refers to membrane binding independent on PS. The note with it: for Liposome binding assay: dansyl FRET assay; for binding to lipid vesicles of either composition: vesicles with and without PS; for binding to PC/PS liposomes (sensitized dansyl emission at 520 nm): PC/PS vesicles; for PS-selective binding in the presence of cholesterol: cholesterol-containing liposomes with PS vs without PS. The protocol: The binding of cLac to lipid membrane can be analyzed by any method known it the art. For example, by the fluorescence assay (Trp-to-dansyl FRET) described herein. Basically, large unilamellar vesicles (100 nm in diameter) were prepared with phosphatidylcholine (PC) and varied percentages of PS. All vesicles contained 5% dansyl-labeled PE to serve as a reporting group. The peptide-vesicle binding was monitored by the fluorescence resonance energy transfer (FRET) from Trp to the dansyl group. Emission of sensitized dansyl is monitored at 520 nm and Trp emission is monitored near 350 nm. Membrane binding of cLac to the PC/PS vesicles produces a sensitized dansyl emission at 520 nm with a concurrent decrease of Trp emission near 350 nm.
The peptide-membrane binding was evaluated via a fluorescence assay: large unilamellar vesicles (100 nm in diameter) were prepared with PC and varied percentages of PS. All vesicles contained 5% dansyl-labeled PE to serve as a reporting group. The peptide-vesicle binding was monitored by the fluorescence resonance energy transfer (FRET) from Trp to the dansyl group.

The subject of test [2] is apoptotic HeLa and Jukat cells (STS or CPT treated). As to the kind of experiment: Cell imaging of apoptotic cells by epifluorescence microscopy. It counts as cell-based, human. The note with it: for Cell imaging: standard epifluorescence microscopy. Also noted: key to Cell imaging: “Y” means PS-selective (or apoptotic cell-specific) binding is observed; N means no or insignificant membrane binding is observed; “Nonselective” refers to membrane binding independent on PS. On the procedure: The fluorescent derivative was tested for its potential to stain apoptotic cells. Cultured HeLa and Jukat cells were treated with the potent apoptogen staurosporine (STS) or camptothecin (CPT) respectively to trigger apoptosis. The experimental conditions were optimized with the FITC-labeled annexin V and the membrane impermeable DNA intercalator propidium iodine (PI). The treatment with 0.1 μM STS or CPT for 4 hours gave a large population of early apoptotic cells (data not shown), which were stained with annexin, but not PI. This indicates increased presence of PS exposure on the outer membrane leaflet of the cells experiencing early apoptosis. […] As negative controls, both fluorescein alone as well as the FITC-labeled linear precursor of cLac were used to label the apoptotic cells and tested for fluorescence staining. […] This observation is consistent with the previous reports that annexin V preferentially binds to cells at the early stages of apoptosis. Since these early apoptotic cells hold their membrane integrity (PI negative), it is believed cLac2-Fl stained the cells by binding to their outer surfaces, presumably to PS.

Entries after “also recorded” stand apart in the source; their conditions may differ. Non-standard residues stand in square brackets, D forms with d. No end group written: not given here. Bip = N[C@@H](Cc1ccc(-c2ccccc2)cc1)C(=O)O

For “D-WBipGHIQGGRGGGD (cyclo([dW][Bip]GHIQGGRGGGD); SMILES CC[C@H](C)[C@@H]1NC(=O)[C@H](Cc2c[nH]cn2)NC(=O)CNC(=O)[C@H](Cc2ccc(-c3ccccc3)cc2)NC(=O)[C@@H](Cc2c[nH]c3ccccc23)NC(=O)[C@H](CC(=O)O)NC(=O)CNC(=O)CNC(=O)CNC(=O)[C@H](CCCNC(=N)N)NC(=O)CNC(=O)CNC(=O)[C@H](CCC(N)=O)NC1=O) [cLac-D-Trp]”, the Liposome binding assay entry in test [1] was “Y”.

With “DWBipGHIQGGRGGG (DW[Bip]GHIQGGRGGG; not fully specified) [cLac-linear, ID; NO; 43]”, in test [2], the Cell imaging entry is recorded as “N”. Moreover, in test [1] (FRET), the “binding to lipid vesicles of either composition” value is listed as “binds to neither type of vesicle”. Also, the Liposome binding assay entry in test [1] is reported as “N”.

Consider “Lac-1: cLac variant peptide, SEQ. ID. NO. 35 (WGHIQGRGGGD)”, for which, in test [1], the Liposome binding assay result was “N”.

“Lac-1R: cLac variant peptide, SEQ. ID. NO. 36 (GGGRGQIHGWD)”: in test [1], the Liposome binding assay result is given as “N”.

On to “Lac-2: cLac variant peptide, SEQ. ID. NO. 37 (WGHIQGGRGGGD)”, for which, in test [1], the Liposome binding assay entry is recorded as “N”.

For “Lac-Tph: cLac variant peptide, SEQ. ID. NO. 39 (WFGHIQGGRGGGD)”, the Liposome binding assay entry in test [1] is given as “Nonselective”.

For “WBipGHIQAGRGGGD (cyclo(W[Bip]GHIQAGRGGGD); SMILES CC[C@H](C)[C@@H]1NC(=O)[C@H](Cc2c[nH]cn2)NC(=O)CNC(=O)[C@H](Cc2ccc(-c3ccccc3)cc2)NC(=O)[C@H](Cc2c[nH]c3ccccc23)NC(=O)[C@H](CC(=O)O)NC(=O)CNC(=O)CNC(=O)CNC(=O)[C@H](CCCNC(=N)N)NC(=O)CNC(=O)[C@H](C)NC(=O)[C@H](CCC(N)=O)NC1=O) [cLac-A1]”, in test [1], the Liposome binding assay entry was “Y”.

For the molecule “WBipGHIQGARGGGD (cyclo(W[Bip]GHIQGARGGGD); SMILES CC[C@H](C)[C@@H]1NC(=O)[C@H](Cc2c[nH]cn2)NC(=O)CNC(=O)[C@H](Cc2ccc(-c3ccccc3)cc2)NC(=O)[C@H](Cc2c[nH]c3ccccc23)NC(=O)[C@H](CC(=O)O)NC(=O)CNC(=O)CNC(=O)CNC(=O)[C@H](CCCNC(=N)N)NC(=O)[C@H](C)NC(=O)CNC(=O)[C@H](CCC(N)=O)NC1=O) [cLac-A2]”, the Liposome binding assay result in test [1] is given as “Y”.

For “WBipGHIQGGGRGGGD (cyclo(W[Bip]GHIQGGGRGGGD); SMILES CC[C@H](C)[C@@H]1NC(=O)[C@H](Cc2c[nH]cn2)NC(=O)CNC(=O)[C@H](Cc2ccc(-c3ccccc3)cc2)NC(=O)[C@H](Cc2c[nH]c3ccccc23)NC(=O)[C@H](CC(=O)O)NC(=O)CNC(=O)CNC(=O)CNC(=O)[C@H](CCCNC(=N)N)NC(=O)CNC(=O)CNC(=O)CNC(=O)[C@H](CCC(N)=O)NC1=O) [cLac-33G]”, the Liposome binding assay result in test [1] is on record as “Y”.

For the molecule “WBipGHIQGGRGGAD (cyclo(W[Bip]GHIQGGRGGAD); SMILES CC[C@H](C)[C@@H]1NC(=O)[C@H](Cc2c[nH]cn2)NC(=O)CNC(=O)[C@H](Cc2ccc(-c3ccccc3)cc2)NC(=O)[C@H](Cc2c[nH]c3ccccc23)NC(=O)[C@H](CC(=O)O)NC(=O)[C@H](C)NC(=O)CNC(=O)CNC(=O)[C@H](CCCNC(=N)N)NC(=O)CNC(=O)CNC(=O)[C@H](CCC(N)=O)NC1=O) [cLac-A5]”, in test [1], the Liposome binding assay result is “Y”.

With “WBipGHIQGGRGGGD (cyclo(W[Bip]GHIQGGRGGGD); SMILES CC[C@H](C)[C@@H]1NC(=O)[C@H](Cc2c[nH]cn2)NC(=O)CNC(=O)[C@H](Cc2ccc(-c3ccccc3)cc2)NC(=O)[C@H](Cc2c[nH]c3ccccc23)NC(=O)[C@H](CC(=O)O)NC(=O)CNC(=O)CNC(=O)CNC(=O)[C@H](CCCNC(=N)N)NC(=O)CNC(=O)CNC(=O)[C@H](CCC(N)=O)NC1=O) [cLac-2, biphenylalanine replaces Phe]”, the “binding to PC-alone liposomes” value in test [1] (FRET, PC-alone liposomes) is “no binding”. Also, in test [1] (FRET), the “binding to PC/PS liposomes (sensitized dansyl emission at 520 nm)” value (“binding to PC/PS liposomes” for short) is on record as “clearly elicits a sensitized dansyl emission; also recorded: only with PC/PS liposomes”. The “binding to cholesterol-containing membranes without PS” value in test [1] (cholesterol-containing PC liposomes) is reported as “non-specific binding”. Besides, in test [1], the “PS-selective binding in the presence of cholesterol” value (“PS-selective binding” for short) was “able to differentiate PS-containing vesicles from PS-absent vesicles” and the Liposome binding assay entry is reported as “Y”. In addition, the “dansyl fluorescence of vesicles containing 20% PS relative to 5% PS” value in test [1] (peptide at saturating concentration 50 μM) is listed as “close to four-fold”. Also, the Kd in test [1] (titration with PC/PS vesicles, sensitized dansyl emission, read-out: apparent dissociation constant (Kd)) was roughly 15 µM.

On to “WBipGHIQGGRGGGGD (cyclo(W[Bip]GHIQGGRGGGGD); SMILES CC[C@H](C)[C@@H]1NC(=O)[C@H](Cc2c[nH]cn2)NC(=O)CNC(=O)[C@H](Cc2ccc(-c3ccccc3)cc2)NC(=O)[C@H](Cc2c[nH]c3ccccc23)NC(=O)[C@H](CC(=O)O)NC(=O)CNC(=O)CNC(=O)CNC(=O)CNC(=O)[C@H](CCCNC(=N)N)NC(=O)CNC(=O)CNC(=O)[C@H](CCC(N)=O)NC1=O) [cLac-24G]”, for which the Liposome binding assay entry in test [1] is “Y”.

In the case of “WBipGHIQGGRGGGGGD (cyclo(W[Bip]GHIQGGRGGGGGD); SMILES CC[C@H](C)[C@@H]1NC(=O)[C@H](Cc2c[nH]cn2)NC(=O)CNC(=O)[C@H](Cc2ccc(-c3ccccc3)cc2)NC(=O)[C@H](Cc2c[nH]c3ccccc23)NC(=O)[C@H](CC(=O)O)NC(=O)CNC(=O)CNC(=O)CNC(=O)CNC(=O)CNC(=O)[C@H](CCCNC(=N)N)NC(=O)CNC(=O)CNC(=O)[C@H](CCC(N)=O)NC1=O) [cLac-25G]”, the Liposome binding assay result in test [1] is listed as “Y”.

For the molecule “WBipGHIQGRGGGD (cyclo(W[Bip]GHIQGRGGGD); SMILES CC[C@H](C)[C@@H]1NC(=O)[C@H](Cc2c[nH]cn2)NC(=O)CNC(=O)[C@H](Cc2ccc(-c3ccccc3)cc2)NC(=O)[C@H](Cc2c[nH]c3ccccc23)NC(=O)[C@H](CC(=O)O)NC(=O)CNC(=O)CNC(=O)CNC(=O)[C@H](CCCNC(=N)N)NC(=O)CNC(=O)[C@H](CCC(N)=O)NC1=O) [cLac-13G]”, the Liposome binding assay entry in test [1] is on record as “Y”.

As to WBipGHIQGppGRGGAD [cLac-PPG-2], the Cell imaging entry in test [2] is given as “Y”. Besides, the “binding to PC/PS liposomes” value in test [1] (FRET) was “selective binding”. Besides, in test [1], the “PS-selective binding” value is “selective binding” and the Liposome binding assay result is “Y”.

Regarding WBipGHppGQGGRGGGD [cLac-PPG-0], the Cell imaging entry in test [2] is on record as “Y”. In test [1] (FRET), the “binding to PC/PS liposomes” value is “selective binding”. For the same molecule, in test [1], the “PS-selective binding” value was “selective binding” and the Liposome binding assay entry was “Y”.

In the case of “cLac-1: first cyclic lactadherin mimetic with Trp and Phe as membrane insertion motif, SEQ. ID. NO. 38 (WFGHIQGGRGGGD; cyclic)”, the “binding to lipid vesicles of either composition” value in test [1] (FRET) is recorded as “no binding”. In test [1], the Liposome binding assay entry is reported as “N”.

In the case of “cLac-22G: cLac variant with di-Gly in linker II, SEQ. ID. NO. 42 (WFGHIQGGRGGD; cyclic)”, the “dansyl emission / membrane binding compared among linker-length variants” value in test [1] (Trp-to-dansyl FRET, Gly number of linker II varied 2 to 5, or linker I varied) is “lowest”. For the same molecule, in test [1], the Liposome binding assay result is reported as “N”.

For the molecule “cLac-A3: alanine for glycine linker variant G10A, SEQ. ID. NO. 40 (WFGHIQGGRAGGD; cyclic)”, in test [1], the Liposome binding assay result is recorded as “N”.

Consider “cLac-A4: alanine for glycine linker variant G11A, SEQ. ID. NO. 41 (WFGHIQGGRGAGD; cyclic)”, for which the Liposome binding assay result in test [1] was “N”.

B1: FITC-labeled annexin V: naturally occurring 36 kDa PS-binding protein, FITC-labeled (protein, UniProt P08758 2-320, looked up)
Annexin A5: AQVLRGTVTDFPGFDERADAETLRKAMKGLGTDEESILTLLTSRSNAQRQEISAAFKTLFGRDLLDDLKSELTGKFEKLIVALMKPSRLYDAYELKHALKGAGTNEKVLTEIIASRTPEELRAIKQVYEEEYGSSLEDDVVGDTSGYYQRMLVVLLQANRDPDAGIDEAQVEQDAQALFQAGELKWGTDEEKFITIFGTRSVSHLRKVFDKYMTISGFQIEETIDRETSGNLEQLLLAVVKSIRSIPAYLAETLYYAMKGAGTDDHTLIRVMVSRSEIDLFNIRKEFRKNFATSLYSMIKGDTSGDYKKALLLLCGEDD
modifications: FITC label
Turning to B1, the “staining of apoptotic cells” value in test [2] (0.1 μM STS or CPT for 4 hours, early apoptotic cells) is recorded as “stained”.

Values taken from patent publication US9133245B2, “Cyclic lactadherin peptide mimetics and their uses” (TRUSTEES OF BOSTON COLLEGE, priority 2011, dated 2015).
